Test results published in publication PMC10056986 (Pharmaceuticals, 2023).
Where a name gives a salt, the structure may show the parent alone.

Columns and labels:
5HT2A = 5HT2A (Homo sapiens, UniProt P28223); experiment: cell-based; conditions: agonist mode; read-out: EC50
Alpha1a = Alpha1a (Homo sapiens, UniProt P35348); experiment: cell-based; conditions: read-out: IC50
CB2 = CB2 (Homo sapiens, UniProt P34972); experiment: cell-based; conditions: read-out: IC50
H2 = H2 (Homo sapiens, UniProt P25021); experiment: cell-based; conditions: read-out: EC50
M1 = M1 (Homo sapiens, UniProt P11229); experiment: cell-based
M2 = M2 (Homo sapiens, UniProt P08172); experiment: cell-based
M3 = M3 (Homo sapiens, UniProt P20309); experiment: cell-based
RSV long = experiment: microbe, parasite or virus in culture; type: cell-based, respiratory syncytial virus; conditions: read-out: EC50 for Virus
HCV replicon 1b = experiment: microbe, parasite or virus in culture; type: cell-based; conditions: Hepatitis C virus, read-out: EC50 for Virus
in vitro [1] = experiment: in vitro
[2] = test system: Influenza virus A/California/07/2009 (H1N1)pdm09; experiment: microbe, parasite or virus in culture; type: cell-based; conditions: H1N1, MDCK, read-out: EC50 (mean ± SD)
[3] = test system: Influenza virus A/California/2/2014 (H3N2); experiment: microbe, parasite or virus in culture; type: cell-based; conditions: H3N2, MDCK, read-out: EC50 (mean ± SD)
A/PR/8/34 (H1N1) = test system: A/PR/8/34 (H1N1); parameters: species or system BALB/c mice; conditions: mouse, in vivo
[4] = Cytotoxicity in MDCK cells without viral infection; conditions: dog
AD2 [5] = type: cell-based, human
[6] = test system: influenza A virus WSN/33 (H1N1); parameters: species or system BALB/c mice; conditions: mouse, in vivo
CCKa = biological target: T1, CCKa (Homo sapiens, UniProt P32238); experiment: cell-based; conditions: read-out: IC50
T1 sequence (P32238 1-428): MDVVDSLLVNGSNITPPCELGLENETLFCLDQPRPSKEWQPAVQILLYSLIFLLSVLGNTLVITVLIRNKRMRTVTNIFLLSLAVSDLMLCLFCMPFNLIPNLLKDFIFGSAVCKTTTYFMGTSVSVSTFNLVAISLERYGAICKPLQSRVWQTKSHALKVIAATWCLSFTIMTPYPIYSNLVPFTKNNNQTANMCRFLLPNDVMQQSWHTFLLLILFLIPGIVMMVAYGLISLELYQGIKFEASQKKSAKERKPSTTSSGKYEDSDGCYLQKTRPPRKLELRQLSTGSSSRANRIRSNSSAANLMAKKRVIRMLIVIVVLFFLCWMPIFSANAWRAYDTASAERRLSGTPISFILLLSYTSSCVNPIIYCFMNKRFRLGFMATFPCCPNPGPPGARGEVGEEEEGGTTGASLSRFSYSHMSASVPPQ

AD2 [7] = type: cell-based, human; conditions: read-out: EC50
HPIV-3 C243 = experiment: microbe, parasite or virus in culture; type: cell-based, human parainfluenza virus type 3; conditions: Human respirovirus 3, LLC-MK2, read-out: EC50 for Virus
in vitro [8] = conditions: rhesus monkey

Chain of M3 (P20309 whole entry): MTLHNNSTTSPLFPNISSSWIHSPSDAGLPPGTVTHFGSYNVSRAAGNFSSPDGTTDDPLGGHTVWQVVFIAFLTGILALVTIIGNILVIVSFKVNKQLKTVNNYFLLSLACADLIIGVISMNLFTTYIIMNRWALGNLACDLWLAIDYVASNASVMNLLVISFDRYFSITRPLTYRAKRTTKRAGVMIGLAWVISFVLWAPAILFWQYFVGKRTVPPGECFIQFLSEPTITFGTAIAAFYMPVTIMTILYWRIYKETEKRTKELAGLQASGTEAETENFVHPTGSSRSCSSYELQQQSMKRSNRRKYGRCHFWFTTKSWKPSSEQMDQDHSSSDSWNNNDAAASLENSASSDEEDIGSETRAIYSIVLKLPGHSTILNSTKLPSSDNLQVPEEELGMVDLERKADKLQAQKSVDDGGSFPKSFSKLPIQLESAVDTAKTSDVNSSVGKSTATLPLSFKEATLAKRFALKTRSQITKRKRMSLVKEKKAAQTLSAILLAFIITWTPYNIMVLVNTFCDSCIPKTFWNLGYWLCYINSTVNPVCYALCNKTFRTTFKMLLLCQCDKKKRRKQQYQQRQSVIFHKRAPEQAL
Chain of M2 (P08172 whole entry): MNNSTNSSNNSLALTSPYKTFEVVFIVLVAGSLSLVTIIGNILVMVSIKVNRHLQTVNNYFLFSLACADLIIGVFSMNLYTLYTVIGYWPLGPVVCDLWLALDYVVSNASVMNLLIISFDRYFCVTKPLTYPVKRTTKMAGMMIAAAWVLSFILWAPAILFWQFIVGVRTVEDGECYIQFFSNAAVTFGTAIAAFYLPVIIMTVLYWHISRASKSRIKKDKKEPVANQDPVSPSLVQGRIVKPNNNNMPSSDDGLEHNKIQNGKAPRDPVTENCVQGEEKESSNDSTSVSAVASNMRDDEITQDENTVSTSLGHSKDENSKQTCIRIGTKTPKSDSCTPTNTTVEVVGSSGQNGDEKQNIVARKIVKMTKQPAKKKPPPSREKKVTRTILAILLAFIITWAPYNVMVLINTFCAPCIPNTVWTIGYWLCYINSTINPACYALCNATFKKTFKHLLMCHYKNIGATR
Chain of H2 (P25021 whole entry): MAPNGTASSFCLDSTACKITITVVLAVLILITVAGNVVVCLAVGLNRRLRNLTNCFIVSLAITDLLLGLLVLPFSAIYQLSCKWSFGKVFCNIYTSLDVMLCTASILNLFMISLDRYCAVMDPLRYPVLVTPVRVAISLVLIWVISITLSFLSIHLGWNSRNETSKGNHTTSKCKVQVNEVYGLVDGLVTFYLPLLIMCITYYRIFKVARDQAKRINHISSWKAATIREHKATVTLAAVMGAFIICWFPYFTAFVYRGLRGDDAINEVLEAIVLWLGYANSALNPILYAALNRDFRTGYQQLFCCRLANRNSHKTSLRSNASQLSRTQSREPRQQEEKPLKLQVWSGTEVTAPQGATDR
Chain of 5HT2A (P28223 whole entry): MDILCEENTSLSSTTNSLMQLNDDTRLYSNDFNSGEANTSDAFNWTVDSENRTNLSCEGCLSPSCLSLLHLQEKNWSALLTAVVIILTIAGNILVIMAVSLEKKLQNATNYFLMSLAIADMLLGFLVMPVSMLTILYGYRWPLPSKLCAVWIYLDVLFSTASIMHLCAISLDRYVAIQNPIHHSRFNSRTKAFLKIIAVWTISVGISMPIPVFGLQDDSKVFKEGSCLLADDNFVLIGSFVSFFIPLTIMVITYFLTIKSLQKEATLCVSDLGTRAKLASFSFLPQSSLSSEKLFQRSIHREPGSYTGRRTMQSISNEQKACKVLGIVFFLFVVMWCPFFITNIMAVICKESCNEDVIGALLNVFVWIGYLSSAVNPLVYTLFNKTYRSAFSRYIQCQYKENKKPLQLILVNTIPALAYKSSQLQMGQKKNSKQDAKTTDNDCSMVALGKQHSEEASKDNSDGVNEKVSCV
Chain of CB2 (P34972 whole entry): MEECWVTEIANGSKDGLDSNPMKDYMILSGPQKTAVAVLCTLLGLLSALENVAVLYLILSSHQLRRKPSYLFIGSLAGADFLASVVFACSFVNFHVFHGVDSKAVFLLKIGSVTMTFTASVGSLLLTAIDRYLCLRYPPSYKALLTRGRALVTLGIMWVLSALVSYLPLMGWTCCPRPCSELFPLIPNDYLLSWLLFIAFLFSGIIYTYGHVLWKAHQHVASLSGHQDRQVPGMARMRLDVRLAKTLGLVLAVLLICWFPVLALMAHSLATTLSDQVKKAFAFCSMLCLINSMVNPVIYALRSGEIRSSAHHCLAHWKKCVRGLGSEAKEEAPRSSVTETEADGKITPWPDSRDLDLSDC
Chain of M1 (P11229 whole entry): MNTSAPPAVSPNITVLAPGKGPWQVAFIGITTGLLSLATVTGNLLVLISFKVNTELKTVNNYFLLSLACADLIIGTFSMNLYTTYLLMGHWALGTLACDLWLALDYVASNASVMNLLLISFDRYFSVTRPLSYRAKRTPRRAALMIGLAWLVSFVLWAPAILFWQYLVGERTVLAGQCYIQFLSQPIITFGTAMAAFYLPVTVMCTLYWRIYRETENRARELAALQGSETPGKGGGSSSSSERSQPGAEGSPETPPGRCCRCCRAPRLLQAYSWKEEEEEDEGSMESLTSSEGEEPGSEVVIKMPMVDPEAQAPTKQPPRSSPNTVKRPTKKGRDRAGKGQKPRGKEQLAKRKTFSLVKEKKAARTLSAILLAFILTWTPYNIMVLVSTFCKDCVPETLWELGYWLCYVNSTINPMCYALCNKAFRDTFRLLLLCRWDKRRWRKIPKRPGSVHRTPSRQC
Chain of Alpha1a (P35348 whole entry): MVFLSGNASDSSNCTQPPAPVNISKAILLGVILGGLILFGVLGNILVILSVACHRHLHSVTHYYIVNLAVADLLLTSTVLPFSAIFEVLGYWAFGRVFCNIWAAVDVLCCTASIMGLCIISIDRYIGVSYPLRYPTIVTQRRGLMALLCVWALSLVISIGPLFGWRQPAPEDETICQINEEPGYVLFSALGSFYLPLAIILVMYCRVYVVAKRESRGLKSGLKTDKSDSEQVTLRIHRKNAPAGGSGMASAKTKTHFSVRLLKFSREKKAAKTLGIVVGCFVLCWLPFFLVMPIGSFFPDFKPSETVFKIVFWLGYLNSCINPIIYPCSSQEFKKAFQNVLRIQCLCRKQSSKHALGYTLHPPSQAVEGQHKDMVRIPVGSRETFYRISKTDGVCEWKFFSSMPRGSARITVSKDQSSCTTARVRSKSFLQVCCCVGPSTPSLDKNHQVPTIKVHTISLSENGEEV

Structure (SMILES): NCCc1c[nH]c2ccc(C(N)=O)cc12 [5-CT, reference compound]
- EC50 (5HT2A): 9.35 nM

Structure (SMILES): COc1ccccc1N1CCN(CCCNc2c(C)c(=O)n(C)c(=O)n2C)CC1 [5-Methylurapidil, reference compound]
- IC50 (Alpha1a): 3.65 nM

Structure (SMILES): COc1ccc(C(=O)c2c(C)n(CCN3CCOCC3)c3cc(I)ccc23)cc1 [AM630, reference compound]
- IC50 (CB2): 234 nM

Structure (SMILES): Cc1nc(N)sc1CCN [Amthamine dihydrobromide, reference compound]
- EC50 (H2): 1340 nM

Structure (SMILES): C#CCOC(=O)C1=CCCN(C)C1 [Arecaidine propargyl ester, reference compound]
- EC50 (M1): 0.78 nM
- EC50 (M2): 76.2 nM
- EC50 (M3): 0.31 nM

Structure (SMILES): O=c1n(Cc2nc3ccccc3n2CCCCO)c2cnccc2n1C1CC1 [BMS-433771, reference compound]
- EC50 (RSV long): 14 nM

Structure (SMILES): COC(=O)N[C@H](C(=O)N1CCC[C@H]1c1nc(-c2ccc(-c3ccc(-c4c[nH]c([C@@H]5CCCN5C(=O)[C@@H](NC(=O)OC)C(C)C)n4)cc3)cc2)c[nH]1)C(C)C [BMS-790052, reference compound]
- EC50 (HCV replicon 1b): 0.021 nM
- CC50 (in vitro [1]): > 3 nM

Structure (SMILES): O=C1c2c(O)c(=O)ccn2N([C@@H]2c3ccccc3SCc3c2ccc(F)c3F)[C@@H]2COCCN12 [Baloxavir]
- EC50 [2]: 1.06 ± 0.22 nM
- EC50 [3]: 0.61 ± 0.02 nM
- mortality rate (A/PR/8/34 (H1N1)): 40%
- CC50 [4]: 14400 ± 1520 nM

Structure (SMILES): Nc1nc2ccc(Cl)cc2c2nc(-c3ccco3)nn12 [CGS-15943, reference compound]
- IC50 (AD2 [5]): 0.11 nM

Structure (SMILES): NC(=O)c1nc(F)c[nH]c1=O [Favipiravir]
- animals died (of n = 8) [6]: six
- day on which body weight of surviving mice began to recover [6]: 9 days

Structure (SMILES): CCCCCN(CCCCC)C(=O)C(CCC(=O)O)NC(=O)c1ccc(Cl)c(Cl)c1 (stereo not drawn) [Lorglumide, reference compound]
- IC50 (CCKa): 256 nM

Structure (SMILES): CCNC(=O)[C@H]1O[C@@H](n2cnc3c(N)ncnc32)[C@H](O)[C@@H]1O [NECA, reference compound]
- EC50 (AD2 [7]): 27.8 nM

Structure (SMILES): NC(=O)c1ncn([C@@H]2O[C@H](CO)[C@@H](O)[C@H]2O)n1 [Ribavirin, reference compound]
- EC50 (HPIV-3 C243): 20300 nM
- CC50 (in vitro [8]): > 100000 nM
